Measured values from publication PMC10284550, “Accelerating drug target inhibitor discovery with a deep generative foundation model” (Science Advances, 2023).
Where two headings read alike, the source gives them in different places.

Key:
[1] = target: T1, SARS-CoV-2 M^pro (Severe acute respiratory syndrome coronavirus 2, UniProt P0DTD1); test: biochemical
[2] = test system: SARS-CoV-2 pseudotyped lentivirus; test: microbe, parasite or virus in culture; format: cell-based
[3] = test system: SARS-CoV-2 Victoria live virus (SARS-CoV-2/human/AUS/VIC01/2020); test: microbe, parasite or virus in culture; format: cell-based
[4] = test system: SARS-CoV-2 Gamma live virus; test: microbe, parasite or virus in culture; format: cell-based; conditions: Severe acute respiratory syndrome coronavirus 2, read-out: IC50 live virus neutralization, Gamma
[5] = test system: SARS-CoV-2 pseudotyped lentivirus (Beta); test: microbe, parasite or virus in culture; format: cell-based; conditions: read-out: IC50 pseudoviral neutralization, Beta
[6] = test system: SARS-CoV-2 Delta live virus; test: microbe, parasite or virus in culture; format: cell-based
[7] = test system: SARS-CoV-2 pseudotyped lentivirus (Alpha); test: microbe, parasite or virus in culture; format: cell-based; conditions: read-out: IC50 pseudoviral neutralization, Alpha
[8] = test system: SARS-CoV-2 Alpha live virus; test: microbe, parasite or virus in culture; format: cell-based
[9] = test system: SARS-CoV-2 pseudotyped lentivirus (Victoria); test: microbe, parasite or virus in culture; format: cell-based; conditions: read-out: IC50 pseudoviral neutralization, Victoria
[10] = test system: SARS-CoV-2 pseudotyped lentivirus (Delta); test: microbe, parasite or virus in culture; format: cell-based; conditions: read-out: IC50 pseudoviral neutralization, Delta
[11] = test system: SARS-CoV-2 pseudotyped lentivirus (Omicron); test: microbe, parasite or virus in culture; format: cell-based; conditions: read-out: IC50 pseudoviral neutralization, Omicron
[12] = test system: SARS-CoV-2 Omicron live virus; test: microbe, parasite or virus in culture; format: cell-based; conditions: Severe acute respiratory syndrome coronavirus 2, read-out: IC50 live virus neutralization, Omicron
[13] = test system: SARS-CoV-2 pseudotyped lentivirus (Gamma); test: microbe, parasite or virus in culture; format: cell-based; conditions: read-out: IC50 pseudoviral neutralization, Gamma
[14] = target: T1, SARS-CoV-2 M^pro; format: binding
[15] = test system: SARS-CoV-2; conditions: cited from earlier work
[16] = Severe acute respiratory syndrome coronavirus 2, HEK293T/17, read-out: IC50, neutralization of SARS-CoV-2 pseudotyped lentivirus
[17] = Severe acute respiratory syndrome coronavirus 2, read-out: IC50, neutralization of Victoria live virus

CN(c1nc(N2CCOCC2)nc(N2CCc3ccccc32)n1)C1CCC(NS(N)(=O)=O)CC1 (stereo not shown) [GXA112]
IC50 [1]: 34.2 µM

Cn1nnnc1C1(c2cccc(Cl)c2)CCC1 [GEN777]
IC50 [2, 16]: > 50 µM
IC50 [3, 17]: > 50 µM

C#CCN1CCC(CCNc2ccnc3ccccc23)CC1 [GEN727]
IC50 [4]: 55.4 ± 8.9 µM
IC50 [5]: 1.1 ± 0.8 µM
IC50 ([6]; Severe acute respiratory syndrome coronavirus 2, read-out: IC50 live virus neutralization, Delta): 39.1 ± 7.4 µM
IC50 ([6]; read-out: IC50 live virus neutralization, Delta): < 50 µM
IC50 [7]: 2.4 ± 0.4 µM
IC50 ([8]; Severe acute respiratory syndrome coronavirus 2, read-out: IC50 live virus neutralization, Alpha): 33.8 ± 1.1 µM
IC50 ([8]; read-out: IC50 live virus neutralization, Alpha): < 50 µM
IC50 [9]: 2.8 ± 1.6 µM
IC50 [10]: 2.2 ± 0.1 µM
IC50 [2, 16]: 2.8 µM
IC50 ([2]; read-out: IC50, neutralization of spike-containing pseudovirus across all VOCs): 0.7 to 2.8 µM
IC50 [3, 17]: 34.8 ± 2 µM
IC50 ([3]; Severe acute respiratory syndrome coronavirus 2, read-out: IC50 live virus neutralization, Victoria): 31.5 ± 2.6 µM
IC50 ([3]; read-out: IC50 live virus neutralization, Victoria): < 50 µM
IC50 [11]: 2.7 ± 0.5 µM
IC50 [12]: 130 ± 1.9 µM
IC50 [13]: 0.7 ± 0.3 µM

CS(=O)(=O)c1ccccc1Oc1ccc(-c2ccc(S(N)(=O)=O)cc2)cc1 [GEN725]
IC50 [2, 16]: 18.7 µM
IC50 [3, 17]: > 50 µM

OC1CCN(c2nc(Nc3ccc4c(c3)CCC4)nc(N3CCC(F)(F)CC3)n2)CC1 [GXA70]
IC50 [1]: 43 µM

NC(=O)c1ccc(N)cc1OC1CCN(CC(F)(F)F)CC1 [GEN626]
IC50 [2, 16]: > 50 µM
IC50 [3, 17]: > 50 µM

CN(Cc1ccc(Cl)c(Cl)c1)c1ccc(S(N)(=O)=O)cn1 [Z68337194]
IC50 [1]: 35.5 µM
Binding to M^pro seen in crystal structure [14]: bound in the active site pocket

CS(=O)(=O)c1cccc(C[C@H](NC(=O)c2c(Cl)cc3c(c2Cl)CCN(C(=O)c2ccc4ccoc4c2)C3)C(=O)O)c1 [Lifitegrast]
antiviral potency against SARS-CoV-2 in vitro [15]: dose-dependent antiviral potency
